Results taken from patent US7064145B2, “Inhibition of beta cell degeneration” (Novo Nordisk A/S, priority 2000, dated 2006).
Values joined by “and” are separate entries in the source; they are usually repeats but may differ in a detail not shown here. Identical values can stand only once. Ends that are not written are not given here.

Assays:
[1] = system: remnant and regenerated pancreatic tissue (beta cells); test: Pancreatic tissue regeneration, BrdU and insulin immunohistochemistry after 60% pancreatectomy; format: in vivo, Sprague-Dawley rats; design: key to Amount of regenerated tissue: The amount of regenerated tissue was scored on the following range: −, (+), +, ++, +++; The amount of regenerated tissue was scored on the following range: −, (+), +, ++, +++; The amount of regenerated tissue was scored on the following range: −, (+), +, ++, +++; The amount of regenerated tissue was scored on the following range: −, (+), +, ++, +++; The amount of regenerated tissue was scored on the following range: −, (+), +, ++, +++; conditions: 20 mg/kg p.o. x2, day 4 to 8
Experimental: A 60% pancreatectomy was performed on a total of 12 male Sprague-Dawley rats. Vehicle and the DPP-IV inhibitor Val-Pyr was administered to 6 of these from day 4 to 8 in a dose of 20 mg/kg p.o. x2, while the remaining 6 rats were treated with vehicle alone.
The proliferation of beta cells was measured as incorporation of the thymidine analogue 5-bromo-2-deoxyuridine (BrdU) into DNA in insulin-positive cells. 8 days after the 60% pancreatectomy, 100 mg/kg BrdU was administered i.p. and 4 hours later the area containing remnant and regenerated pancreatic tissue was removed and processed for immunohistochemistry. Three adjacent sections from each animal were stained for insulin and BrdU. The amount of regenerated tissue was scored on the following range: −, (+), +, ++, +++. The location of BrDU was examined in regenerated pancreatic (reg) and exocrine (ex) tissue. Insulin staining was scored as weak (W), normal (N), and in regenerated tissue (+R).

[2] = Oral Glucose Tolerance Test (OGTT) at day 8 in 60% pancreatectomized rats; format: in vivo, Sprague-Dawley rats; conditions: 20 mg/kg p.o. x2, day 4 to 8
[3] = system: pancreatic islet cells from newborn rats; test: Beta cell proliferation in vitro (BrdU incorporation into DNA in insulin-positive cells); format: cell-based
Experimental: In our efforts to identify beta cell growth factors we discovered that GLP-1 indeed could stimulate beta cell proliferation in vitro. The proliferation was measured as incorporation of the thymidine analogue 5-bromo-2-deoxyuridine (BrdU) into DNA in insulin-positive cells in pancreatic islet cells from newborn rats.

Molecule | Animals with insulin expressed in islets located in the regenerating pancreatic tissue ([1]; vehicle alone 1 out of 6) | Amount of regenerated tissue ([1]; per animal, tissue removed 8 days after 60% pancreatectomy, 20 mg/kg) | Glucose excursion AUC after OGTT [2] | Number of labelled (BrdU) beta cells [3]
CC(C)[C@H](N)C(=O)N1CCCC1 [Val-Pyr] | 5 out of 6 | + (5×) and ++ | ~50 % of vehicle | –
GLP-1: insulinotropic hormone Glucagon like peptide-1 (HAEGTFTSDVSSYLEGQAAKEFIAWLVKGR; ends and bridges not checked; UniProt P01275 98-127, looked up) | – | – | – | increase the number of labelled beta cells
